PubChem BioAssay AID720632 (Broad Institute, 2013)
Calls of active or inactive are those of the source. No rule for the calls is given here.

Target: Caspase-6 (Homo sapiens) (UniProt P55212)
Assay: human caspase-6 inhibitors, dose response, biochemical, VEID-R110 fluorescence, cherry-pick (AID 720632)
Details: caspase-6, VEID-R110 fluorogenic substrate

Chain of Caspase-6 (Homo sapiens) (P55212 24-179 limits assumed): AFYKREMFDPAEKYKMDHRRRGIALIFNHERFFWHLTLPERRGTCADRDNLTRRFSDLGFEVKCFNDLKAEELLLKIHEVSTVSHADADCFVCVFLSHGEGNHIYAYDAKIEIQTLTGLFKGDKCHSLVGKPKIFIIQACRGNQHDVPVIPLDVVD
Chain of Caspase-6 (Homo sapiens) (P55212 194-293 limits assumed): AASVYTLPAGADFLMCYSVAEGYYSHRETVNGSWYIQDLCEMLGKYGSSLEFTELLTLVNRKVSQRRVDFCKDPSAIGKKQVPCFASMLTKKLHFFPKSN

Compound | activity change, negative = inhibition (at 26 µM (top of the series)) | activity change, negative = inhibition (at 23.5 µM (top of the series))
CC1CCCC(C)N1C(=O)C1CCCCC1 (configuration not stated) | inactive | –
O=C(NC(=S)NNS(=O)(=O)c1ccccc1)c1ccccc1[N+](=O)[O-] | inactive | –
CCN(CC)c1ccc2c(cc1=O)[C@@H](NC)CCc1cc(OC)c(OC)c(OC)c1-2 | inactive | –
COc1ccc(NC(=O)Nc2ccccc2F)c([N+](=O)[O-])c1 | inactive | –
O=C(NC1CC1)c1c(O)c2ccccc2[nH]c1=O | inactive | –
CC(=O)c1ccc(S(=O)(=O)N2CCN(C(=O)c3ccc(-n4cncn4)c([N+](=O)[O-])c3)CC2)cc1 | inactive | –
O=C(Nc1ccc2c(c1)OCO2)C1Cc2c(-c3ccc4c(c3)OCO4)ccnc2O1 (configuration not stated) | inactive | –
O=C(Oc1cccc(-n2cnnn2)c1)c1ccccc1Cl | inactive | –
CN1C(=O)CCS(=O)(=O)C1c1ccc(Cl)c(Cl)c1 (configuration not stated) | inactive | –
CO[C@@H]1CN(C)C(=O)c2ccc(NC(=O)C3CC3)cc2OC[C@@H](C)N(CC2CCOCC2)C[C@@H]1C | inactive | –
Cc1[nH]ncc1Nc1c(C(C)C)cccc1C(C)C | inactive | –
CCC(=O)Nc1ccc2c(c1)OC[C@H](C)N(C(=O)CC)C[C@H](C)[C@H](OC)CN(C)C2=O | inactive | –
CO[C@@H]1CN(C)C(=O)c2ccc(NC(=O)c3ccccc3)cc2OC[C@H](C)N(C(=O)C2CC2)C[C@H]1C | inactive | –
COc1ccccc1C(=O)Nc1ccc2c(c1)OC[C@@H](C)N(CC1CC1)C[C@H](C)[C@H](OC)CN(C)C2=O | inactive | –
O=C(CC1C(=O)NCCN1Cc1cccc(F)c1F)NCCCC1CCCC1 (configuration not stated) | inactive | –
COC(=O)c1ccc(CNC(=O)COC(=O)c2ccccc2-c2ccccc2)cc1 | inactive | –
CO[C@@H]1CN(C)C(=O)c2ccc(NC(C)=O)cc2OC[C@@H](C)N(C(=O)CC2CC2)C[C@@H]1C | inactive | –
O=C1Cc2cc(S(=O)(=O)N3CCN(c4ccc(C(=O)O)cc4)CC3)ccc2N1 | inactive | –
COc1ccc(O)c(C(c2c(C)[nH][nH]c2=O)c2c(C)[nH][nH]c2=O)c1 | inactive | –
O=C(N/N=C/c1coc2ccccc2c1=O)c1cc(Br)ccc1O | inactive | –
Nc1ccc(C(=O)N/N=C/c2cn(Cc3ccc(F)cc3)c3ccccc23)cc1 | inactive | –

Compound | activity change, negative = inhibition (at 26 µM (top of the series)) | activity change, negative = inhibition (at 23.5 µM (top of the series))
CN(C(=O)c1ccc(Cl)cc1)c1ccc(OCC(=O)Nc2cc(C(=O)O)ccc2Cl)cc1 | inactive | –
COc1ccc(NC(=O)C(F)(OC)C(F)(F)F)c(OC)c1 (configuration not stated) | inactive | –
O=C(C[C@@H]1C=C[C@@H](NC(=O)c2ccc(F)cc2)[C@@H](CO)O1)NCc1ccncn1 | inactive | –
COCC(=O)Nc1ccc2c(c1)OC[C@@H](C)N(CC1CC1)C[C@H](C)[C@@H](OC)CN(C)C2=O | inactive | –
CCC(C)CN1C(=O)CN(S(C)(=O)=O)CC1(C)C(=O)Nc1ccc2c(c1)OCCO2 (configuration not stated) | inactive | –
Cc1nc2ccc(NC(=O)CCC3CCCC3)cc2s1 | inactive | –
O=C(O)c1ccc(NS(=O)(=O)/C=C/c2ccccc2)cc1O | inactive | –
COc1ccc(OC)c(S(=O)(=O)NCC(c2cccs2)N2CCc3ccccc3C2)c1 (configuration not stated) | inactive | –
Nc1cccnc1Oc1ccc(F)cc1 | inactive | –
CO[C@@H]1CN(C)C(=O)c2ccc(NC(C)=O)cc2OC[C@@H](C)NC[C@@H]1C | inactive | –
CO[C@@H]1CN(C)C(=O)c2ccc(NC(=O)C3CC3)cc2OC[C@H](C)N(Cc2cccc(F)c2)C[C@@H]1C | inactive | –
Cc1cccc(N2CCN(C(=O)CCCn3c(=S)[nH]c4cc5c(cc4c3=O)OCO5)CC2)c1C | inactive | –
CCOC(=O)c1c(NC(=O)C2CC(Cl)=CCC2C(=O)O)sc2c1CC(C)(C)OC2 (configuration not stated) | inactive | –
CCCN1C[C@@H](C)[C@@H](OC)CN(C)C(=O)c2ccc(NC(=O)CC)cc2OC[C@H]1C | inactive | –
C/C(=N\NC(=O)c1ccccc1O)c1ccc(NC(=O)Cc2ccccc2)cc1 | inactive | –
CCN(CC)c1c([N+](=O)[O-])c(=O)n(CC)c2ccccc12 | inactive | –
O=C(COC(=O)c1ccc([N+](=O)[O-])o1)NC1CCCCC1 | inactive | –
CO[C@@H]1CN(C)C(=O)c2ccc(NC(=O)C3CC3)cc2OC[C@@H](C)N(Cc2cccc(F)c2)C[C@@H]1C | – | inactive
CC(CN1CCCCC1)C(=O)NNC(=O)C12CC3CC(CC(C3)C1)C2 (configuration not stated) | inactive | –
Nc1cc(C(Cl)=C(Cl)Cl)c(S(N)(=O)=O)cc1S(N)(=O)=O | inactive | –
C=CCOc1cccn2c(N(C=O)Cc3ccccc3)c(CC)nc12 | inactive | –
